Results on two compounds are retold here after patent US7615361B2, “Toxicity screening methods” (Ceetox, Inc., priority 2006, dated 2009).

Series [1] deals with SK-MEL28 cells. Description: Intracellular total glutathione (GSH). How it is done: (§1) Intracellular Glutathione (GSH) Levels: Intracellular glutathione levels were determined essentially as described by Griffith (1980) with modifications. At the end of the exposure period, the medium was removed from the cells and metaphosphoric acid (MPA) was added to each well. Plates were then shaken for 5 min at room temperature and stored at −20° C. until needed.
(§2) The sample plates were thawed just prior to analysis and centrifuged at >2000×g for at least 2 min. Sample aliquots were removed and transferred to a clean 96-well plate along with appropriate standard curve controls. Sample pH was neutralized just prior to analysis and each well received an aliquot of sodium phosphate reaction buffer containing EDTA, DTNB, NADPH, and glutathione reductase. The plates were mixed for 15-30 min at room temperature and glutathione content was determined calorimetrically with a Packard Fusion or equivalent reader at 415 nm.
(§3) Intracellular Glutathione (GSH) Levels: The assay is based on the concept that all GSH is oxidized to GSSG by DTNB reagent. Two molecules of GSH are required to make one molecule of GSSG. Total GSH was determined by reducing GSSG to 2GSH with glutathione reductase. A standard curve was prepared with oxidized glutathione (GSSG) over a range of concentrations. These concentrations are then converted to glutathione equivalents (GSX) essentially by multiplying the GSSG standard concentrations by 2. The amount of GSX expressed as pmoles/well was determined using the standard curve and regression analysis.
(§4) The test compound consisted of two parts mixed in a constant ratio of 5:1. The final test mixture consisted of Test mix 1 and Test mix 2, which were received as frozen solutions. The test mixture was tested in a ratio of 5:1 COMP A in five different cell types which included the following: SK-MEL28, human hepatocytes, HUVEC, C32, and NHEM cells. Cells were seeded into 96-well plates and cultured in medium containing 10% bovine serum. Following an equilibration period of 48 hr, the cells were treated with the test compound mix at concentrations of COMP A (μg/mL)=(250:50), (125:25), (25:12.5), (12.5:2.5), (2.5:1.25), (1.25:0.25), and (0.25:0.05) for 24 hr (overnight) at 37° C. in 5% CO2. […] Following an equilibration period of 4 hr, the cells were treated with the test compound mix at concentrations of COMP A (μg/mL)=(250:50), (125:25), (25:12.5), (12.5:2.5), (2.5:1.25), (1.25:0.25), and (0.25:0.05) for 24 hr (overnight) at 37° C. in 5% CO2.
(§5) Experimental Protocol: The test compounds were shipped on dry ice for testing. The compounds were stored frozen at −80° C. until needed. Dosing solutions were prepared in complete culture medium. SK-MEL28, human hepatocytes, HUVEC, C32, and NHEM cells were used as the test systems. Cells were seeded into 96-well plates and allowed to equilibrate for approximately 48 hr. Following the equilibration period the cells were exposed to the test compound mix at concentrations of COMP A (μg/mL)=(250:50), (125:25), (25:12.5), (12.5:2.5), (2.5:1.25), (1.25:0.25), and (0.25:0.05). […] Following the exposure period, the cells or their supernatant (culture medium) were analyzed for changes in cell proliferation, membrane leakage, mitochondrial function, oxidative stress, and apoptosis. The resultant exposure concentration response curves were graphed and analyzed for determining the concentration that produced a half maximal response or TC50.

The nature of series [2]: Intracellular total glutathione (GSH). Particulars: human. On the procedure: as §1, §2, §3, §4, §5
For series [3], the system named is human hepatocytes. Description: Membrane lipid peroxidation (8-isoprostane ELISA). The settings on record: 24 HR. On the procedure: (§6) Lipid Peroxidation Measured as 8-Isoprostane (8-ISO): 8-ISO levels were determined using an ELISA. 8-ISO is a member of a family of eicosanoids produced non-enzymatically by random oxidation of tissue phospholipids by oxygen radicals. Therefore, an increase in 8-ISO is an indirect measure of increased lipid peroxidation (Vacchiano and Tempel, 1994). At the end of the exposure period, plates were either analyzed immediately or stored at −80° C. until needed for analysis. Color development, which is […] to the amount of 8-ISO present in the sample, was read on a Packard Fusion or equivalent plate reader at 415 nm.
(§7) Lipid Peroxidation Measured as 8-Isoprostane (8-ISO): Background absorbance produced from Ellman's reagent is subtracted from all wells. Non-specific binding is subtracted from the maximum binding wells to give a corrected maximum binding expressed as Bo. The percent of bound (B) relative to maximum binding capacity (Bo) for all unknown samples and for standards was determined an expressed as (% B/Bo). The % B/Bo for standards was plotted against the log of 8-ISO added to yield the final standard curve. This curve was used to convert % B/Bo to pg 8-ISO/mL of sample.
as §4
(§8) Experimental Protocol: The test compounds were shipped on dry ice for testing. The compounds were stored frozen at −80° C. until needed. Dosing solutions were prepared in complete culture medium. SK-MEL28, human hepatocytes, HUVEC, C32, and NHEM cells were used as the test systems. Cells were seeded into 96-well plates and allowed to equilibrate for approximately 48 hr. Following the equilibration period the cells were exposed to the test compound mix at concentrations of COMP A (μg/mL)=(250:50), (125:25), (25:12.5), (12.5:2.5), (2.5:1.25), (1.25:0.25), and (0.25:0.05). Solubility was determined by Nephalometry techniques immediately after dosing and prior to harvesting the cells at 24 hr. Following the exposure period, the cells or their supernatant (culture medium) were analyzed for changes in cell proliferation, membrane leakage, mitochondrial function, oxidative stress, and apoptosis. The resultant exposure concentration response curves were graphed and analyzed for determining the concentration that produced a half maximal response or TC50.
For orientation: An ELISA detects its analyte on a solid surface through an enzyme-linked reagent.

The subject of series [4] is HUVEC. Description: Membrane lipid peroxidation (8-isoprostane ELISA). Particulars: 24 HR. How it is done: as §6, §7, §4, §8
The test system of series [5] is C32 cells. Description: Membrane lipid peroxidation (8-isoprostane ELISA). The settings on record: C32, 24 HR. How it is done: as §6, §7, §4, §8
In series [6] the test system is NHEM cells. The series is described as follows: Membrane lipid peroxidation (8-isoprostane ELISA). The settings on record: 24 HR. How it is done:
as §6, §7, §4, §8

The mark [7] stands for this setting: SK-MEL28, 24 HR, COMP A (LOW) / controls #2.
[8] abbreviates: SK-MEL28, 72 HR, COMP A (LOW) / controls #2.

Take `CC[C@@]1(O)C(=O)OCc2c1cc1n(c2=O)Cc2cc3ccccc3nc2-1` [CAMPTOTHECIN, Camptothecin]: the “Percent Change in Total GSH” value in series [1] (SK-MEL28, 24 HR) is on record as −46.0%; in series [1] (setting [7]), −57.9%; in series [1] (setting [8]), −88.8%. The compound also had a CC50 at 24 h in series [2] (SK-MEL28 cells) of 10000 nM. For the same compound, the CC50 at 72 h in series [2] (SK-MEL28 cells) is 100 nM. The “Membrane Lipid Peroxidation” value in series [3] is reported as 1 (1 = Modest increase with maximum values ≦15 pg/mL); in series [4], 2 (2 = Concentration related increase with maximum values ≧15 pg/mL); in series [5], 0; in series [6], 1 (1 = Modest increase with maximum values ≦15 pg/mL).
For the compound `C=C(C)[C@H]1Cc2c(ccc3c2O[C@@H]2COc4cc(OC)c(OC)cc4[C@@H]2C3=O)O1` [ROTENONE, Rotenone], the “Percent Change in Total GSH” value amounted to 52.8% in series [1] (SK-MEL28, 24 HR); 49.9% in series [1] (setting [7]); 85.1% in series [1] (setting [8]). The compound also returned a CC50 at 72 h in series [2] of 100 nM. Further, the “Membrane Lipid Peroxidation” value is recorded as 0 in series [3], 1 (1 = Modest increase with maximum values ≦15 pg/mL) in series [4], 0 in series [5] and 2 (2 = Concentration related increase with maximum values ≧15 pg/mL) in series [6].
